In patent US10488418B2, “Fluorescence assay for intestinal permeability” (THE REGENTS OF THE UNIVERSITY OF CALIFORNIA, priority 2014, dated 2019):
Where two headings read alike, the source gives them in different places. Values belong to the molecule of their own block, whether it stands above or below them.

How the values were obtained:
[1] = Viologen based fluorescence assay for sugars in urine with 4,4′oBBV and HPTS; set-up: species or system human
Text: (§1) A Marquardt 4-parameter curve fit was used. […] The g in urine/g ingested×100 yielded % ingested. Lactulose measurements were confirmed by enzyme assay.
Statistics: The lower limit of detection (LLOD) was defined as the analyte concentration in the urine sample at which fluorescence intensity in the assay was 3 standard deviations above the mean baseline fluorescence. Similarly, the lower limit of quantification (LLOQ) was defined as 10 standard deviations above the mean baseline fluorescence. Coefficient of variation percent (CV %) was determined by averaging sets of samples each measured in 4 wells. Results are given as mean±SEM.

[2] = human, in vivo
Experimental: (§2) Intestinal permeability test in humans: Subjects consumed 0.5-1.0 L water the night before and in the morning about 3 hour prior to sample collection. The first morning urine was voided. No food or other beverages were consumed prior to the test. Permeability probes were ingested after baseline urine collection. […] Test subjects were permitted to drink water or coffee as desired. Light snacks were permitted after the fourth hour. Urine volumes were recorded and 50 mL was retained for analysis.
(§3) Sample collection: Freshly collected urine (50 ml) was first centrifuged 2500 RCF at 4° C. for 10 minutes.
(§4) Supernatants were pipetted 40 μL/well in duplicate into plates (#3694, Corning, USA). Fluorescence (Exc/Em 450/580 nm) was read on a plate reader (Infinite M200Pro, Tecan, Switzerland). Concentration was calculated as mg/mL and multiplied by total urine volume in mL, giving total mg in urine. The mg in urine/mg ingested×100 yielded % ingested.
(§5) The SPE column was cleaned with MeOH and H2O between runs. […] Data was corrected for a 9% loss. After SPE, samples were directed to the various assays.
(§6) Viologen method for lactulose and mannitol permeability in humans: Ready-made assay 96 well plates were prepared (#3694, Corning, 199 USA). A 4× premix buffer was prepared (0.1 M sodium phosphate, 0.1 M HEPES, 0.04% Triton X-100, pH 7.4). To this was added HPTS (16 μM) and quencher (1.6 mM 4,4′oBBV or 2.0 mM 4,4′oMBV), each 4 times above final concentration. The different viologen concentrations were chosen to achieve similar extents of quenching in the absence of sugar (about 20% of free fluorophore) while preserving a strong signal to noise (S/N). Blank wells were given 10 μl 4× premix buffer with neither HPTS nor viologen. Some wells received 16 μM HPTS without quencher to determine maximum possible fluorescence. All other wells received 10 μl of the complete 4× premix. Those premixes containing 4,4′oBBV were continuously vortexed because the mixture is a suspension. Plates were sealed with plate tape and stored at 4° C. until use.
(§7) Upon running an assay, 30 μl of standards or samples were pipetted into wells. Final concentrations were 4 μM HPTS and 400 μM 4,4′oBBV or 500 μM 4,4′oMBV. Urine samples were placed in both blank wells (for individual sample blanking) and wells containing complete 4× premix. Plates were put on a shaker for 1 hr, RT. During this time, sugars interacted with the HPTS-viologen complex, liberating HPTS into solution. Plates were then centrifuged at 2500 RCF for 10 minutes at room temperature to pull down remaining HPTS-quencher particulate matter. Plate tape was removed and fluorescence read on a plate reader (Tecan M-200 Infinite, gain 70, 404/535 nm). The height was adjusted to read from the top of the solution (18 mm). […] A Marquardt 4-parameter curve fit was used. Sugar concentrations were calculated as g/mL and multiplied by total urine volume in mL, giving total amount of urine in grams. Values were corrected for percentage recovery from the C18 SPE step. The g in urine/g ingested×100 yielded % ingested. Lactulose measurements were confirmed by enzyme assay. Mannitol measurements were confirmed by HPLC-Evaporative Light Scattering Detector (HPLC-ELSD) using a C8 pre-column and Prevail Carbohydrate ES 5μ 250×4.6 mm column (Grace Davison 224 Discovery Sciences, Ill., USA) with 80:20 MeCN/H2O.

[3] = Intestinal permeability test in humans (urine excretion of ingested probes)
Experimental: as §2, §3, §4, §5, §6, §7

[4] = Quenching of HPTS fluorescence by boronic acid viologen in absence of sugar
Experimental: as §1
The term “Initial quench” as used herein refers to HPTS fluorescence in presence of quencher and absence of sugar (maximum achievable quench) as a percent of maximum possible fluorescence with 4 μM free HPTS in absence of any quencher. The term “LLOD” as used herein refers to analyte concentration in original urine sample (as opposed to final concentration in the assay) at which the fluorescence signal equals or exceeds 3 standard deviations above mean assay noise level. The term “LLOQ” as used herein refers to analyte concentration in original urine sample at which the fluorescence signal equals or exceeds 10 standard deviations above mean assay noise level. The term “range” as used herein refers to urine concentrations found in healthy volunteers before transforming data to % ingested. The term “Mean±SEM” as used herein refers to standard mean plus or minus standard error of mean as generally understood in medical science. The term “CV %” as used herein refers to intra-assay coefficient of variation for samples.

[5] = viologen assay system, viologen not specified

Structure (SMILES): OB(O)c1ccccc1C[n+]1ccc(-c2cc[n+](Cc3ccccc3B(O)O)cc2)cc1 [4,4′oBBV, 1,1′-bis(2-boronobenzyl)-4,4′-bipyridinium]
- Relative selectivity ([1]; 4,4′oBBV): lactulose>fructose>galactose

Structure (SMILES): O=C(CO)[C@@H](O[C@H]1O[C@H](CO)[C@@H](O)[C@H](O)[C@H]1O)[C@H](O)[C@H](O)CO [turanose]
- fluorescence as percent of fructose [1, 5]: ~30%
- fluorescence as percent of the lactulose fluorescence [1, 5]: ~20%

- time of return to baseline in urine after ingestion [2]: about 6 hours
- Typical values for humans (urine concentration) ([3]; human urine): 1 to 10 mM
- RANGE (urine concentrations found in healthy volunteers) ([3]; human urine after oral 50 mg riboflavin, 5 g mannitol or 10 g lactulose, mean±SEM, sugars measured with 4,4′oBBV): 3929 ± 972 µM
Structure (SMILES): OC[C@@H](O)[C@@H](O)[C@H](O)[C@H](O)CO [Mannitol, mannitol]

- Typical values for humans (urine concentration) [2]: 0.01 to 0.1 mM
- time of return to baseline in urine after ingestion [2]: about 6 hours
Structure (SMILES): Cc1cc2nc3c(=O)[nH]c(=O)nc-3n(C[C@H](O)[C@H](O)[C@H](O)CO)c2cc1C [Riboflavin, riboflavin]

- Typical values for humans (urine concentration) [2]: 0.2 to 1.5 mM
Structure (SMILES): OC[C@H]1O[C@@H](O[C@@H]2[C@@H](CO)OC(O)(CO)[C@H]2O)[C@H](O)[C@@H](O)[C@H]1O (mixture of isomers) [Lactulose, lactulose]
- signal stronger than fructose [1, 5]: ~20%

Structure (SMILES): OB(O)c1ccccc1C[n+]1ccc(-c2cc[n+](Cc3ccccc3)cc2)cc1 [4,4′oMBV, 1-(2-boronobenzyl)-1′-benzyl-4,4′-bipyridinium]
- Initial Quench % Max ([4]; HPTS fluorescence with quencher and no sugar, as percent of 4 μM free HPTS, final 400 μM 4,4′oBBV or 500 μM 4,4′oMBV): 16%
- higher concentration required than 4,4′oBBV to achieve the same extent of quenching ([4]; HPTS quenching, 0 μM sugar): about 20%

Structure (SMILES): OC[C@H]1O[C@H](O[C@]2(CCl)O[C@H](CCl)[C@@H](O)[C@@H]2O)[C@H](O)[C@@H](O)[C@H]1Cl [sucralose]
- interference with the viologen based method [1]: Neither sucrose nor sucralose interfere

Structure (SMILES): OC[C@H]1O[C@@](CO)(O[C@H]2O[C@H](CO)[C@@H](O)[C@H](O)[C@H]2O)[C@@H](O)[C@@H]1O [sucrose]
- interference with the viologen based method [1]: Neither sucrose nor sucralose interfere
- fluorescence signal [1, 5]: no signal

Structure (SMILES): OC[C@H]1O[C@@H](O[C@H]2[C@H](O)[C@@H](O)C(O)O[C@@H]2CO)[C@H](O)[C@@H](O)[C@H]1O (stereo partly shown) [lactose]
- response of 4,4′oBBV to sugar ([1]; 10 mM sugar): essentially no response
